In patent US20170191038A1, “TGFß SIGNALING INDEPENDENT NAÏVE INDUCED PLURIPOTENT STEM CELLS, METHODS OF MAKING AND USE” (HONG GUAN Ltd., priority 2014, published 2017):
Where a name gives a salt, the structure may show the parent alone.

Experiments:
Format in all cases: cell-based, rhesus monkey (Macaca mulatta)
[1] = test system: Rhesus monkey primed iPSCs; assay: Conversion of rhesus monkey primed iPSCs to naive iPSCs (conversion condition optimization, TRA-1-81/TBX3 double-positive dome-shaped colonies); details: for effect on pluripotency / dome-shaped colony formation during naive conversion: primed iPSCs under 2i/LIF-based conditions, Y27632 10 μM, GÖ6983 5 μM
Method: Rhesus monkey primed iPSCs were dissociated into single cells by accutase and reseeded on feeder cells. The converting medium with 4 ng/ml bFGF (R&D Systems), 10 ng/ml human LIF (Millipore), CHIR99021 (3 μM; Stemgent) and PD0325901 (0.5 μM; Stemgent) was changed daily. At approximately day 7 to day 10, dome-shaped colonies were selected and transferred onto fresh feeder cells. Traditional 2i/LIF conditions—10 ng/ml human LIF (Millipore), CHIR99021 (3 μM; Stemgent) and PD0325901 (0.5 μM; Stemgent) were also tested and served as negative control. • (c) Conversion Condition Optimization for Rhesus Monkey Naïve iPSCs
Rhesus monkey primed iPSCs were dissociated into single cells by accutase and reseeded on feeder cells. The basal culture medium with 4 ng/ml bFGF (R&D Systems), 10 ng/ml human LIF (Millipore), CHIR99021 (3 μM; Stemgent) and PD0325901 (0.5 μM; Stemgent) was changed daily. The small molecules tested for culture condition optimization were SB203580 (10 μM; Tocris), SP600125 (10 μM; Tocris), Y27632 (10 μM; Tocris) and GÖ6983 (5 μM; Tocris). After treatment for 8 days, cells were fixed and immunostained for TRA-1-81.
(§1) To detect ALP activity the cells were washed with phosphate-buffered saline three times and stained with BCIP/NBT (Promega) for 15 min. For immunofluorescence, the primary antibodies included those against SSEA-1 (1:50, Chemicon), SSEA-4 (1:20, Santa Cruz Biotechnology), TRA-1-60 (1:50, Santa Cruz Biotechnology), TRA-1-81 (1:50, Santa Cruz Biotechnology), NANOG (1:100, R&D Systems), TBX3 (1:200, Abcam), H3K27me3 (1:200, Millipore), GATA4 (1:200, Santa Cruz Biotechnology), OCT4 (1:200, Abcam) and SOX2 (1:200, Santa Cruz Biotechnology). The secondary antibodies were rhodamine-labeled donkey anti-mouse IgG (1:100, Santa Cruz Biotechnology), rhodamine-labeled donkey anti-rabbit IgG (1:100, Santa Cruz Biotechnology), rhodamine-labeled goat anti-mouse IgM (1:100, Santa Cruz Biotechnology) and rhodamine-labeled donkey anti-goat IgG (1:100, Santa Cruz Biotechnology). DAPI (Roche Applied Science) was used for nuclear staining.

[2] = test system: Rhesus monkey naïve iPSCs; assay: Signaling analysis of rhesus monkey naïve iPSCs (TRA-1-81-positive dome-shaped colonies); details: optimized conversion conditions; 5 days; Stattic 1 μM, SB431542 10 μM, SU5402 2 μM, TGF-β1 2 ng/ml
Method: (§2) Rhesus monkey primed iPSCs were maintained as described (Liu H et al., 2008). […] The tested signaling modulators were SU5402 (2 μM; Tocris), SB431542 (10 μM; Tocris), Stattic (1 μM; Tocris) and TGF-β1 (2 ng/ml, Peprotech). After treatment for 5 days, cells were fixed and immunostained for TRA-1-81.
as §1

[3] = test system: Rhesus monkey primed iPSCs; assay: Signaling analysis of rhesus monkey primed iPSCs (TRA-1-81-positive colonies); details: hESCs medium; 5 days; Stattic 1 μM, SB431542 10 μM, SU5402 2 μM, TGF-β1 2 ng/ml
Method: as §2, §1

Row | Compound | effect on pluripotency / dome-shaped colony formation during naive conversion [1] | self-renewal / pluripotency maintenance of naive iPSCs (TRA-1-81-positive dome-shaped colonies, words) [2] | self-renewal / pluripotency maintenance of primed iPSCs (TRA-1-81-positive colonies, words) [3] | conversion efficiency (TRA-1-81/TBX3 double-positive and dome-shaped colonies of total colonies) ([1]; bFGF (4 ng/ml) added to 2i/LIF conditions, primed iPSCs)
1 | COc1ccc2c(c1)c(C1=C(c3c[nH]c4ccccc34)C(=O)NC1=O)cn2CCCN(C)C [GO{umlaut over ( )} 6983, 3-[1-[3-(Dimethylamino)propyl]-5-methoxy-1H-indol-3-yl]-4-(1H-indol-3-yl)-1H-pyrrole-2,5-dione] | induced pronounced differentiation and reduced TRA-1-81 expression in the colonies |  |  | 
2 | O=[N+]([O-])c1ccc2c(c1)S(=O)(=O)C=C2 [JAK/STAT3 inhibitor] |  | readily differentiated with greatly reduced expression of TRA-1-81 | maintained their pluripotent properties | 
3 | O=C(NOC[C@H](O)CO)c1ccc(F)c(F)c1Nc1ccc(I)cc1F [PD0325901, N-[(2R)-2,3-Dihydroxypropoxy]-3,4-difluoro-2-[(2-fluoro-4-iodophenyl)amino]-benzamide] | essential for conversion and maintenance of TBX3/TRA-1-81 double-positive dome-shaped colonies |  |  | 
4 | NC(=O)c1ccc(-c2nc(-c3ccccn3)c(-c3ccc4c(c3)OCO4)[nH]2)cc1 [SB431542] |  | no effect on rhesus monkey naive iPSCs | devastating to primed iPSCs self-renewal | 
5 | Cc1c[nH]c(/C=C2\C(=O)Nc3ccccc32)c1CCC(=O)O [SU5402] |  | few TRA-1-81-positive colonies formed | few TRA-1-81-positive colonies formed | 
6 | C[C@@H](N)[C@H]1CC[C@H](C(=O)Nc2ccncc2)CC1 [Y27632, (+)-(R)-trans-4-(1-aminoethyl)-N-(4-pyridyl)cyclohexanecarboxamide+++dihydrochloride] | induced pronounced differentiation and reduced TRA-1-81 expression in the colonies |  |  | 
7 | TGF-β: transforming growth factor-β1 (2 ng/ml, Peprotech) |  | devastating to the self-renewal of naïve iPSCs |  | 
8 | bFGF: recombinant basic fibroblast growth factor, protein factor | Dome-shaped colonies morphologically similar to mouse ESCs appeared |  |  | 8%-10%
